Results from the METLIN SMRT retention time set (Domingo-Almenara et al. 2019).

Assay: gradient 5% acetonitrile 3 min, to 50% in 2 min, to 85% in 15 min, held 3 min, 100 µL/min
Settings: column: Zorbax Extend-C18 2.1 x 50 mm; eluents: water / acetonitrile, 0.1% formic acid
Summary of the method: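 Pure standards were analyzed in mixtures of ~100 molecules using HPLC coupled to a quadrupole time-of-flight mass spectrometer, in both positive and negative ionization mode. Separation used a Zorbax Extend-C18 column (2.1 × 50 mm, 1.8 μm) at 100 μL/min, with water and acetonitrile each containing 0.1% formic acid. Dead and dwell volumes were 40 μL and 900 μL, and data were collected over 3 months. Retention time was read from computationally picked adduct peaks, each inspected manually.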

Structure (SMILES) | RP-LC retention time [s]
Fc1cccc(Cn2cc(-c3noc(C4CCCC4)n3)nn2)c1 | 1010
CCc1nc2cc(-c3noc(-c4ccc5cc[nH]c5c4)n3)ccc2o1 | 1110
Cc1cccc(N2C(=O)CN(Cc3ccco3)[C@H]3CS(=O)(=O)C[C@H]32)c1 | 744
Cc1nc(N2CCOCC2)c2c(C(=O)NCc3ccc(Cl)cc3)c(C)oc2n1 | 797
CC(=O)c1cc2c(cc1NC(=O)c1ccc(COc3ccccc3)o1)OCO2 | 1080
CCN1C(=O)COc2ccc(-c3noc(/C=C/c4ccc(OC)c(OC)c4)n3)cc21 | 1050
Fc1ccc2nc(Nc3nc(-c4ccncc4)cs3)sc2c1 | 588
CC1(C(=O)NC2CCCC2)Cn2cnc(C(=O)NCc3ccc(F)cc3)c2C(=O)N1C1CC1 (stereo not drawn) | 759
COc1ccc(C2Cn3nnc(-c4nc(-c5cccc(C(F)(F)F)c5)no4)c3CO2)cc1 (stereo not drawn) | 1270
O=C(Nc1nnc2n1CCS2)c1ccc2c(c1)OCO2 | 590
CC(=O)N1CCc2cc(N3CC(C(=O)NCc4ccc5c(c4)OCO5)CC3=O)ccc21 (stereo not drawn) | 659
O=C(C1CCOC1)N1CCC(c2nncn2Cc2ccccc2)CC1 (stereo not drawn) | 541
Cc1cccc(C)c1OCC(=O)Nc1nc(-c2ccccc2)cs1 | 1180
Cc1cccc(NC(=O)Cn2ncc3c(c2=O)N(C2CC2)C(=O)CS3)c1C | 714
Clc1ccccc1N1CCN(c2ncnc3[nH]ncc23)CC1 | 660
O=C(Cn1cnc2nc(N3CCC(C(=O)NC4CC4)CC3)sc2c1=O)Nc1ccc(F)cc1F | 651
CCc1noc(NC(C)=O)c1-c1ccc(OC)c(S(=O)(=O)Nc2ccc(C)c(C)c2)c1 | 846
Cc1ccn2c(NC(=O)Cc3ccccc3)c(-c3ccc(F)cc3)nc2c1 | 669
CCC(C)(C)NC(=O)c1cc2c(s1)N(CCOC)CCCC2 | 1020
CCc1nc(-c2cccc(-c3noc(CNC(=O)Cc4ccc(Cl)cc4)n3)c2)cs1 | 1100
Cc1ccc(NC(=O)N2CC(n3ccnc3C(C)C)C2)cc1C | 642
CCOC(=O)c1c(C)oc2ncnc(N3CCC(c4ccccc4)C3)c12 (stereo not drawn) | 1100
Cc1c(-c2noc(C(=O)NCCCN3CCCC(C)C3)n2)oc2ccccc12 (stereo not drawn) | 722
CCOc1ccc(CNC(=O)CCc2nnc3c4cc(-c5ccccc5)nn4ccn23)cc1 | 785

Structure (SMILES) | RP-LC retention time [s]
CCCc1noc(-c2cccnc2N2CCCN(Cc3ccc(F)cc3Cl)CC2)n1 | 748
CC1=C(c2ccc(F)cc2)S(=O)(=O)N=C1N1CCC(NC(=O)c2ccoc2)CC1 | 747
C=CCN1CCN(c2ccc3nnc(CCc4nc(-c5ccc(F)cc5)no4)n3n2)CC1 | 622
NC(=O)Cc1csc(NC(=O)c2coc(NC(=O)c3ccccc3)n2)n1 | 586
Cn1cnc(S(=O)(=O)N2CC(c3nc(-c4ccncc4)no3)C2)c1 | 590
COc1ccc2c(c1)OC1(C)CC2C(S(=O)(=O)c2ccc(C)cc2)C(=O)N1 (stereo not drawn) | 877
COc1ccc(NC(=O)N(Cc2nnc3n2CCCCC3)c2ccc(OC)cc2)cc1 | 631
CC1(C(=O)NCc2ccccc2)CN(S(=O)(=O)c2ccccc2)CC(=O)N1c1cccc(Cl)c1 (stereo not drawn) | 958
Cc1nnc([C@@H]2CC(F)(F)CN2C(=O)c2n[nH]c3ccccc23)o1 | 666
O=S(=O)(Nc1cccnc1)c1ccc(Cl)c(-c2nnc(-c3ccccc3)o2)c1 | 807
Cc1cc2n(n1)CCC(=O)N2CCCC(=O)NCCCN1CCc2ccccc2C1 | 580
N#CC1=C(SCC(=O)Nc2nccs2)NC2=C(C(=O)CCC2)C1c1ccco1 (stereo not drawn) | 674
CCC(=O)NC(C)c1nc(-c2ccc(C)cc2)no1 (stereo not drawn) | 777
NC(=O)C1CCN(c2ncnc3c2cnn3-c2ccc(Cl)cc2)CC1 | 732
CCOc1ccc(-c2noc(C3CC(=O)N(c4cc(Cl)ccc4OC)C3)n2)cc1 (stereo not drawn) | 1040
Cc1ccc(C)c(CNC(=O)c2cc3n(n2)CC(C)(C(=O)NCc2ccc(F)cc2)N(C)C3=O)c1 (stereo not drawn) | 842
Cc1cc(C)n2c(Nc3cccc(C(F)(F)F)c3)c(-c3ccc(O)cc3)nc2n1 | 697
CCOC(=O)c1cc(S(=O)(=O)N2CCCC2C(=O)Nc2cccc(Br)c2)cn1C (stereo not drawn) | 1010
CCN1CCCC1CNC(=O)c1ccc2nc(Cc3ccccc3)oc2c1 (stereo not drawn) | 650
O=C(N[C@H]1C[C@@H]2C[C@H]1CN2C(=O)NCCc1ccccc1)c1cccs1 | 716
Cc1ccc(-c2ncc(NC(=O)CC(C)C)cn2)cc1 | 961
CCOCCCNC(=O)c1ccc2c(c1)CCCN2S(C)(=O)=O | 706
COCCn1nc(N2CCCC(NS(=O)(=O)c3c(C)nn(C)c3C)C2)ccc1=O (stereo not drawn) | 622
CC(C)NC(=O)c1cc2cc(Br)ccc2[nH]1 | 879

Further lines, results first:

RP-LC retention time [s] | Structure (SMILES)
725 | COc1ccc(-c2nnc(-c3ccccc3)o2)cc1S(=O)(=O)Nc1cccnc1
707 | Cc1cc(NC(=O)NCCn2nnc3cc(C(=O)N(C)C)ccc32)ccc1Br
1050 | CCn1cc2c3c(cccc31)CN(C(=O)c1ccc(Br)o1)CC2
1070 | COCCCn1c(=O)c2ccccc2n(Cc2nc(-c3ccc(Cl)cc3)no2)c1=O
825 | O=C(CN1C(=O)NC2(CCCCC2)C1=O)Nc1ccc(Cl)cc1
661 | COc1ccc2c(C)c(CC(=O)N3CCC(C(N)=O)CC3)c(=O)oc2c1C
690 | CCNC(=O)C1CCCN(c2nc3ncn(CC(=O)N4CCc5ccccc5C4)c(=O)c3s2)C1 (stereo not drawn)
596 | CCc1ccc(C2=C(C)C(N3CCC(NC(=O)NC(C)C)CC3)=NS2(=O)=O)cc1
658 | O=C(NCCc1ccccc1)NC1CCN(C(=O)N2C[C@H]3C[C@H](C2)[C@H]2CCCC(=O)N2C3)CC1
1380 | COc1ccc(-c2nc3n(n2)C2(CCCCC2)[C@@H]2CCCC[C@@H]2N3C(=O)c2ccco2)cc1
741 | O=C(c1cccs1)N1CCC2(CC1)NC(=O)N(Cc1ccccc1)C2=O
799 | O=C(CCC(=O)c1ccc(F)cc1)Nc1cnn(-c2ncc(N3CCCC3)cn2)c1
785 | O=C(NC1CCCCC1)C1CCCN(c2ccc(=O)n(-c3cccc(F)c3)n2)C1 (stereo not drawn)
607 | CC(C)c1nc2cccnc2n1CCN1CCN(C(=O)Nc2ccccc2Cl)CC1
766 | CCOCC(=O)N1CC(c2nc(-c3ccccc3)no2)C2(CCOCC2)C1 (stereo not drawn)
1020 | O=S(=O)(c1ccccc1F)N1CCC(c2noc(-c3ccccc3)n2)CC1
560 | CCOC(=O)N1CCN(C(=O)CSc2nncn2C)CC1
1110 | CCOc1ccccc1N1CCN(S(=O)(=O)c2nn(C)cc2C(=O)NC2CCCCC2)CC1
699 | CC(C)CC(=O)N[C@H](Cc1ccccc1)C(=O)NCc1cscn1
620 | O=C(c1ccccc1Cl)N1CCC(n2cnnc2C2CC2)CC1

RP-LC retention time [s] | Structure (SMILES)
667 | Cc1nn(C(C)C(=O)NCCCN2CCc3ccccc3C2)c(=O)c2nn(-c3ccccc3)c(C)c12 (stereo not drawn)
566 | COCCN1CCC(CNS(=O)(=O)c2ccc(F)cc2C)CC1
754 | O=C(Nc1cnc2ccccc2c1)N(c1ccccc1)c1ccccc1
1080 | CCCCN(C)S(=O)(=O)c1cc(-c2nc(C)cs2)n(CC(=O)N2CCCCC2)c1
585 | COCCN1C(=O)[C@H]2CN(Cc3ccc(F)cc3)C[C@H]2C1=O
600 | CN1CCN(CCNC(=O)CSCc2nc3cccnc3n2C2CCCCC2)CC1
1050 | Cc1ccc(-c2nc(-c3ccnc(N4CCOCC4)c3)no2)cc1
887 | CCNC(=O)c1ccc2c(c1)CCCN2S(=O)(=O)c1ccc(Cl)cc1
1270 | Cc1ccc(C)c(N2CCN(Cc3nc(-c4ccc(N5CCC(C)CC5)nc4)no3)CC2)c1
703 | CCC(=O)N1c2ccccc2NC2=C(C(=O)CC(C)(C)C2)C1c1ccc(O)c(OC)c1 (stereo not drawn)
1000 | CC1CCc2c(sc(NC(=O)Cc3ccc(Cl)s3)c2C(N)=O)C1 (stereo not drawn)
738 | CN1CCc2ccccc2Cc2[nH]c3ccccc3c2CC1
705 | O=C(COc1ccc(F)cc1)Nc1ccc2c(c1)CCC(=O)N2
1200 | Cc1nc(-n2nc(C)c(Cl)c2C)sc1C(=O)N1CCCCC1
778 | Cc1noc(/C=C/c2ccc(S(=O)(=O)N3CCOCC3)s2)c1NC(=O)C1CC1
610 | CCN1CCN(c2cc(C)c3cc(NC(=O)c4ccc(Br)cc4)ccc3n2)CC1
1030 | Cc1noc(-c2ccc(NC(=O)COc3ccc(Cl)cc3Cl)cc2)n1
631 | CCn1cc(C(=O)N[C@@H](C)C(=O)O)c(=O)c2cc3c(cc21)OCO3
1100 | Cc1nn(-c2ccccc2)c2nc(C3CC3)cc(C(=O)NCc3ccco3)c12
865 | COc1ccc(CCN2CC(=O)N(c3cc(C)cc(C)c3)[C@@H]3CS(=O)(=O)C[C@@H]32)cc1
